Values after ≈ are worked out from the molar mass of the structure shown.
Columns and labels:
Assay in all cases: microbe, parasite or virus in culture
[1] = system: ATCC 35827 Kanamycin Resistant; assay type: cell-based; details: Mycobacterium tuberculosis, ATCC35827, read-out: MIC Value, ATCC 35827 Kanamycin Resistant
[2] = system: rifampin (RMP)-resistant Mtb (SRI 1367); assay type: cell-based, Mycobacterium tuberculosis; details: for MIC: Mycobacterium tuberculosis, read-out: MIC RMP-R
[3] = system: isoniazid (INH)-resistant Mtb (SRI 1369); assay type: cell-based, Mycobacterium tuberculosis; details: for MIC: Mycobacterium tuberculosis, read-out: MIC INH-R
[4] = system: ofloxacin (OFX)-resistant Mtb (SRI 4000); assay type: cell-based, Mycobacterium tuberculosis; details: for MIC: Mycobacterium tuberculosis, read-out: MIC OFX-R
[5] = system: ATCC 35830 Ethionamide Resistant; assay type: cell-based; details: Mycobacterium tuberculosis, ATCC35830, read-out: MIC Value, ATCC 35830 Ethionamide Resistant
[6] = system: ATCC 35822 Isoniazid Resistant; assay type: cell-based; details: Mycobacterium tuberculosis, ATCC35822, read-out: MIC Value, ATCC 35822 Isoniazid Resistant
[7] = system: ATCC 35820 Streptomycin Resistant; assay type: cell-based; details: Mycobacterium tuberculosis, ATCC35820, read-out: MIC Value, ATCC 35820 Streptomycin Resistant
[8] = system: ATCC 35837 Ethambutol Resistant; assay type: cell-based; details: Mycobacterium tuberculosis, ATCC35837, read-out: MIC Value, ATCC 35837 Ethambutol Resistant
[9] = system: ATCC 35821 Para-aminosalicylic Resistant; assay type: cell-based, Mycobacterium tuberculosis; details: for MIC: Mycobacterium tuberculosis, ATCC35821, read-out: MIC Value, ATCC 35821 Para-aminosalicylic Resistant

SMILES | MIC [1] [µg/mL] | MIC [5] [µg/mL] | MIC [6] [µg/mL] | MIC [7] [µg/mL] | MIC [8] [µg/mL] | other results
NC[C@H]1O[C@H](O[C@H]2[C@H](O)[C@@H](O[C@H]3O[C@H](CO)[C@@H](O)[C@H](N)[C@H]3O)[C@H](N)C[C@@H]2N)[C@H](O)[C@@H](O)[C@@H]1O [Kanamycin, reference compound] | > 8 | – | – | – | – | –
N=C(NCCCCCCNC(=N)NC(=N)N1CCN(c2cc3c(cc2F)c(=O)c(C(=O)O)cn3C2CC2)CC1)NC(=N)N1CCN(c2cc3c(cc2F)c(=O)c(C(=O)O)cn3C2CC2)CC1 [BVS-10A] | – | – | – | – | – | % inhibition at the MIC concentration [2]: 58%; MIC [2]: 6.25 µg/mL (≈ 6.85 µM); % inhibition at the MIC concentration [3]: 53%; MIC [3]: 1.56 µg/mL (≈ 1.71 µM); % inhibition at the MIC concentration [4]: 74%; MIC [4]: 0.781 µg/mL (≈ 0.855 µM)
CCc1cc(C(N)=S)ccn1 [Ethionamide, reference compound] | – | > 8 | – | – | – | –
NNC(=O)c1ccncc1 [Isoniazid, isoniazid, reference compound] | – | – | > 8 | – | – | % inhibition at the MIC concentration [2]: 86%; MIC [2]: 0.02 µg/mL (≈ 0.146 µM)
CC1COc2c(N3CCN(C(=N)NC#N)CC3)c(F)cc3c(=O)c(C(=O)O)cn1c23 (stereo not drawn) [BVS-60C (XVII)] | 0.625 (≈ 1.51 µM) | 0.312 (≈ 0.753 µM) | 0.625 (≈ 1.51 µM) | 0.312 (≈ 0.753 µM) | 0.625 (≈ 1.51 µM) | MIC [9]: 0.625 to 1.25 µg/mL (≈ 1.51 to 3.02 µM)
CO[C@H]1/C=C/O[C@@]2(C)Oc3c(C)c(O)c4c(O)c(c(/C=N/N5CCN(C)CC5)c(O)c4c3C2=O)NC(=O)/C(C)=C\C=C\[C@H](C)[C@H](O)[C@@H](C)[C@@H](O)[C@@H](C)[C@H](OC(C)=O)[C@@H]1C [Rifampin, rifampin, reference compound] | – | – | – | – | – | % inhibition at the MIC concentration [3]: 67%; MIC [3]: 0.049 µg/mL (≈ 0.0595 µM); % inhibition at the MIC concentration [4]: 75%; MIC [4]: 0.195 µg/mL (≈ 0.237 µM)
[H]/N=C(/N)N[C@H]1[C@H](O)[C@@H](O)[C@H](O[C@@H]2O[C@@H](C)[C@](O)(C=O)[C@H]2O[C@@H]2O[C@@H](CO)[C@H](O)[C@@H](O)[C@@H]2NC)[C@@H](N/C(N)=N\[H])[C@@H]1O [Streptomycin, reference compound] | – | – | – | > 8 | – | –
C[C@@H]1COc2c(N3CCN(C(=N)NC(=N)NCCCCCCNC(=N)NC(=N)N4CCN(c5c(F)cc6c(=O)c(C(=O)O)cn7c6c5OC[C@@H]7C)CC4)CC3)c(F)cc3c(=O)c(C(=O)O)cn1c23 [BVS-85A (XVII)] | 1.25 to 2.5 (≈ 1.32 to 2.65 µM) | 0.625 (≈ 0.661 µM) | 1.25 (≈ 1.32 µM) | 0.625 (≈ 0.661 µM) | 1.25 (≈ 1.32 µM) | MIC [9]: 2.5 µg/mL (≈ 2.65 µM)
C[C@@H]1COc2c(N3CCN(C(=N)NC(=N)N4CCN(c5c(F)cc6c(=O)c(C(=O)O)cn7c6c5OC[C@@H]7C)CC4)CC3)c(F)cc3c(=O)c(C(=O)O)cn1c23 [BVS-76D (XVII)] | 0.625 (≈ 0.82 µM) | 0.156 (≈ 0.205 µM) | 0.625 (≈ 0.82 µM) | 0.312 (≈ 0.41 µM) | 0.312 to 0.625 (≈ 0.41 to 0.82 µM) | MIC [9]: 0.625 to 1.25 µg/mL (≈ 0.82 to 1.64 µM)
CC[C@@H](CO)NCCN[C@@H](CC)CO [Ethambutol, reference compound] | – | – | – | – | > 8 | –
Nc1ccc(C(=O)O)c(O)c1 [Para-aminosalicylic, reference compound] | – | – | – | – | – | MIC Value, ATCC 35821 Para-aminosalicylic Resistant [9]: >8 µg/mL
